Test results from article PMC8362950 (PLoS ONE, 2021).
Where two headings read alike, the source gives them in different places.

What was measured:
6xHis-CBU0823 = molecular target: T1, 6xHis-CBU0823 (Coxiella burnetii, UniProt Q83DB5); conditions: substrate inhibition constant (KSi), 1 mM MnCl2, PBS pH 7.4
T1 construct: gene sfcA

6xHis-oMLE [1] = molecular target: T2, 6xHis-oMLE (Oenococcus oeni, UniProt Q48796); assay type: biochemical
T2 construct: gene mleA

GST-CBU1241 = molecular target: T3, GST-CBU1241 (Coxiella burnetii, UniProt Q83C87); conditions: substrate inhibition constant (KSi); 0.5 mM NADH, PBS pH 7.4
T3 construct: gene mdh
T3 sequence (Q83C87 whole entry, looked up): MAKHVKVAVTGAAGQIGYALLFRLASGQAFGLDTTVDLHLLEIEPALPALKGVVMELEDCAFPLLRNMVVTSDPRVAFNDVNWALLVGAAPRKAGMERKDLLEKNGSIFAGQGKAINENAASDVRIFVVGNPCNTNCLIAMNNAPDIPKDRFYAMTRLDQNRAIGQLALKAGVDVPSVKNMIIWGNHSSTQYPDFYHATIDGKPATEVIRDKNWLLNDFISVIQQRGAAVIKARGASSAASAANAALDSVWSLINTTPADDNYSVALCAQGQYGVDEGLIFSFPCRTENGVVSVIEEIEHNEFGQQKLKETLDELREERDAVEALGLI

6xHis-oMLE [2] = molecular target: T2, 6xHis-oMLE; assay type: biochemical; remark: listed apart in the source

T1 sequence (Q83DB5 1-565 limits assumed): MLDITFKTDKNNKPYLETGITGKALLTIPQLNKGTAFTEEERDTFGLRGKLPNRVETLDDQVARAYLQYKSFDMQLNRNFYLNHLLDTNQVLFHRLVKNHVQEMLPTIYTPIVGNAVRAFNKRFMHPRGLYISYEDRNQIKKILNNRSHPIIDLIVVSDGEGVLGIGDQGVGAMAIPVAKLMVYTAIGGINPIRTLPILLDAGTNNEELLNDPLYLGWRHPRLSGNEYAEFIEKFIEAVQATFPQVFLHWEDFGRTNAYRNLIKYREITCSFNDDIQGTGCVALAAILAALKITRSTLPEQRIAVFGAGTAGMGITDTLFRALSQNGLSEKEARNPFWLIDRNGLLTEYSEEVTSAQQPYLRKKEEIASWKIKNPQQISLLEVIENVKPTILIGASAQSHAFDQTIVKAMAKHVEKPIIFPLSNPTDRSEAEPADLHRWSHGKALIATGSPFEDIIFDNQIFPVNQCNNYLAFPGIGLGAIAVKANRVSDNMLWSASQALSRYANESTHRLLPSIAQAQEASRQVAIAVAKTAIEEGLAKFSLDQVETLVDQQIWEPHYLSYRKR
T2 sequence (Q48796 whole entry): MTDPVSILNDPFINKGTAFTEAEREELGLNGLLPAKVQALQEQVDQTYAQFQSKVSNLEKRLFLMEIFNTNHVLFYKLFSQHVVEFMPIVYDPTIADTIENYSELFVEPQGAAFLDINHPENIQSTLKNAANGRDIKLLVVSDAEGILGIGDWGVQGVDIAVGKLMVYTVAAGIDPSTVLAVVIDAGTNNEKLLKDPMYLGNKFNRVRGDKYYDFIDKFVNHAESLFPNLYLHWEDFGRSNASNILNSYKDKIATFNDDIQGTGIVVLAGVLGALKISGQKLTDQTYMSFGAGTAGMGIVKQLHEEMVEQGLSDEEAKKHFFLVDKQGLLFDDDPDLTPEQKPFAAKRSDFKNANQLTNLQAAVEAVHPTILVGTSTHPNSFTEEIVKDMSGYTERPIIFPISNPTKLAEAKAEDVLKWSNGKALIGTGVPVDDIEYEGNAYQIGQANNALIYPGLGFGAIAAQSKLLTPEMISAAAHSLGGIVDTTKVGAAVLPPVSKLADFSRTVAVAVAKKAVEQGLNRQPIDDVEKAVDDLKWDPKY

Structure (SMILES): NC(=O)c1ccc[n+]([C@@H]2O[C@H](COP(=O)(O)OP(=O)(O)OC[C@H]3O[C@@H](n4cnc5c(N)ncnc54)[C@H](O)[C@@H]3O)[C@@H](O)[C@H]2O)c1 [NAD^+]
- Ki (6xHis-CBU0823; 3 mM malate, printed as NADH, but b28, Fig 6B and S3F show varied NAD+): 6.30 (95% CI 0.27–12.33) mM

Structure (SMILES): O=C(O)C[C@H](O)C(=O)O [malate]
- GC-MS detection of lactate and pyruvate (6xHis-oMLE [1]): 6xHis-oMLE could generate amounts of lactate and pyruvate significantly above baseline
- Ki (6xHis-CBU0823; NAD+ 2.5 mM (Fig 6 legend: 5 mM)): 10.86 (95% CI -7.31–29.05) mM

Structure (SMILES): O=C(O)CC(=O)C(=O)O [oxaloacetate]
- Ki (GST-CBU1241): 1.25 (95% CI -0.85–3.39) mM
- NADH oxidation at 340 nm (6xHis-oMLE [2]): the observed reduction of OAA indicating MDH activity was not detected in the previous characterisation
